IC50 and viability, T/C data for four molecules are collected here from PubChem BioAssay AID2060348 (Molecular Pharmacology Branch, DTP, NCI, 2025).

Structures are written as SMILES. Values joined by “and” are separate entries in the source; they are usually repeats but may differ in a detail not shown here. Identical values can stand only once.

The subject of the experiment is 885724-159-R-J1-PDC spheroids viability. Description: Anticancer human tumor 885724-159-R-J1-PDC patient-derived pancreatic adenocarcinoma cell line growth inhibition [TAK]. Conditions: spheroids with HUVEC and MSC; for viability, T/C: stronger effect = lower value. In a few lines: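 Spheroids of 60% malignant cells, 25% HUVEC and 15% hMSC were exposed to targeted agents combined with TAK-243 or ipatasertib. Concentrations started at or near clinical Cmax (10 microM if unknown) and descended in half-log steps.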

Setting [1] is: curve of first compound, second compound 0.3 µM.
[2] abbreviates: curve of first compound, second compound 0.949 µM.
The mark [3] stands for this setting: curve of first compound, second compound 3 µM.
[4] abbreviates: curve of first compound, second compound 9.49 µM.
Setting [5] is: curve of first compound, second compound 30 µM.
Where [6] appears, read: second compound 0.3 µM, first compound 0.00316 µM.
Setting [7] is: second compound 0.3 µM, first compound 0.01 µM.
The mark [8] stands for this setting: second compound 0.949 µM, first compound 0.00316 µM.
[9] abbreviates: second compound 0.949 µM, first compound 0.01 µM.
[10] abbreviates: second compound 3 µM, first compound 0.00316 µM.
Setting [11] is: second compound 3 µM, first compound 0.01 µM.
Where [12] appears, read: second compound 9.49 µM, first compound 0.00316 µM.
Where [13] appears, read: second compound 9.49 µM, first compound 0.01 µM.
The mark [14] stands for this setting: second compound 30 µM, first compound 0.00316 µM.
The mark [15] stands for this setting: second compound 30 µM, first compound 0.01 µM.
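Also: spheroids exposed to drugs for seven days.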
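For viability, T/C in this document: 100% = DMSO vehicle control viability.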

A word on the IC50: it is the midpoint of a concentration-inhibition curve. Broadly, the viability, T/C is the result in the treated group divided by that in the control group, in per cent. On to `CC(C)CC(NC(=O)C(Cc1ccccc1)NC(=O)c1cnccn1)B(O)O` (centres undefined) + CC(C)NCC(C(=O)N1CCN(c2ncnc3c2C(C)CC3O)CC1)c1ccc(Cl)cc1, for which the IC50 is 3.48 nM under setting [1]; 1.44 nM under setting [2]; 1.28 nM under setting [3]; 0.572 nM under setting [4]; less than 0.0316 nM under setting [5]. Moreover, the viability, T/C reads like this: (second compound 0.3 µM, first compound 31.6 pM) 77.5%; (second compound 0.3 µM, first compound 0.0001 µM) 68.6%; (second compound 0.3 µM, first compound 0.000316 µM) 68.7%; (second compound 0.3 µM, first compound 0.001 µM) 68.1%; under setting [6], 55%; under setting [7], 0.97%. The viability, T/C runs as follows: (second compound 0.949 µM, first compound 31.6 pM) 60.3%; (second compound 0.949 µM, first compound 0.0001 µM) 64.1%; (second compound 0.949 µM, first compound 0.000316 µM) 59%; (second compound 0.949 µM, first compound 0.001 µM) 65.8%; under setting [8], 23.7%; under setting [9], 1.29%. Also, the viability, T/C reads like this: (second compound 3 µM, first compound 31.6 pM) 58.1%; (second compound 3 µM, first compound 0.0001 µM) 58.9%; (second compound 3 µM, first compound 0.000316 µM) 58.7%; (second compound 3 µM, first compound 0.001 µM) 57.9%; under setting [10], 20.6%; under setting [11], 0.95%. Besides, the viability, T/C is, setting by setting: (second compound 9.49 µM, first compound 31.6 pM) 48.1%; (second compound 9.49 µM, first compound 0.0001 µM) 54.8%; (second compound 9.49 µM, first compound 0.000316 µM) 50.5%; (second compound 9.49 µM, first compound 0.001 µM) 49%; under setting [12], 21.1%; under setting [13], 0.94%. Besides, the viability, T/C reads like this: (second compound 30 µM, first compound 31.6 pM) 31%; (second compound 30 µM, first compound 0.0001 µM) 38.5%; (second compound 30 µM, first compound 0.000316 µM) 33.7%; (second compound 30 µM, first compound 0.001 µM) 34.5%; under setting [14], 14.8%; under setting [15], 0.56%.

In the case of `COC1CC2CCC(C)C(O)(O2)C(=O)C(=O)N2CCCCC2C(=O)OC(C(C)CC2CCC(OCCO)C(OC)C2)CC(=O)C(C)C=C(C)C(O)C(OC)C(=O)C(C)CC(C)C=CC=CC=C1C` (centres undefined), the viability, T/C (compound 0.000316 µM) is 93.8% and 110%; the viability, T/C (compound 0.001 µM) was 91.7% and 92%; the viability, T/C (compound 0.00316 µM) was 79.7% and 77%; the viability, T/C (compound 0.01 µM) is 69.8% and 72.2%; the viability, T/C (compound 0.0316 µM) is 70.2% and 70.8%; the viability, T/C (compound 0.1 µM) was 67.6% and 62.2%. Further, the IC50 (curve of compound) is more than 100 nM.

Turning to `COc1c(OCCCN2CCOCC2)ccc2c3n(c(=NC(=O)c4cnc(N)nc4)nc12)CCN3` + CC(C)NCC(C(=O)N1CCN(c2ncnc3c2C(C)CC3O)CC1)c1ccc(Cl)cc1, the IC50 reads like this: under setting [1], 4.05 nM; under setting [2], less than 3.16 nM; under setting [3], less than 3.16 nM; under setting [4], less than 3.16 nM; under setting [5], less than 3.16 nM. In addition, the viability, T/C reads like this: under setting [6], 52.4%; under setting [7], 41.2%; (second compound 0.3 µM, first compound 0.0316 µM) 27.3%; (second compound 0.3 µM, first compound 0.1 µM) 19.4%; (second compound 0.3 µM, first compound 0.316 µM) 13.4%; (second compound 0.3 µM, first compound 1 µM) 12.3%. Moreover, the viability, T/C is, setting by setting: under setting [8], 32.9%; under setting [9], 27.1%; (second compound 0.949 µM, first compound 0.0316 µM) 20.3%; (second compound 0.949 µM, first compound 0.1 µM) 14.8%; (second compound 0.949 µM, first compound 0.316 µM) 12.1%; (second compound 0.949 µM, first compound 1 µM) 10.8%. Moreover, the viability, T/C under setting [10] was 26.9%; the viability, T/C under setting [11] was 20.4%; the viability, T/C (second compound 3 µM, first compound 0.0316 µM) is 16%; the viability, T/C (second compound 3 µM, first compound 0.1 µM) was 13.7%; the viability, T/C (second compound 3 µM, first compound 0.316 µM) was 11.6%; the viability, T/C (second compound 3 µM, first compound 1 µM) was 11.2%. The viability, T/C is, setting by setting: under setting [12], 22.8%; under setting [13], 18.9%; (second compound 9.49 µM, first compound 0.0316 µM) 13.8%; (second compound 9.49 µM, first compound 0.1 µM) 11.3%; (second compound 9.49 µM, first compound 0.316 µM) 9.95%; (second compound 9.49 µM, first compound 1 µM) 10.2%. Besides, the viability, T/C reads like this: under setting [14], 18%; under setting [15], 12.7%; (second compound 30 µM, first compound 0.0316 µM) 9.8%; (second compound 30 µM, first compound 0.1 µM) 9.29%; (second compound 30 µM, first compound 0.316 µM) 6.93%; (second compound 30 µM, first compound 1 µM) 6.96%.

Turning to `CCCS(=O)(=O)Nc1ccc(F)c(C(=O)c2c[nH]c3ncc(-c4ccc(Cl)cc4)cc23)c1F`, the viability, T/C (compound 0.316 µM) is 145% and 137%; the viability, T/C (compound 1 µM) was 179% and 154%; the viability, T/C (compound 3.16 µM) was 187% and 177%; the viability, T/C (compound 10 µM) was 96.5% and 86.4%; the viability, T/C (compound 31.6 µM) is 159% and 132%; the viability, T/C (compound 100 µM) was 150% and 129%. Besides, the IC50 (curve of compound) was more than 100000 nM.
